Among the data in patent US20250115598A1 (Anaxis Pharma Pty Ltd, priority 2021, published 2025) are Kd values, retold here.

Chain of human MLKL (full length) (Q8NB16 whole entry): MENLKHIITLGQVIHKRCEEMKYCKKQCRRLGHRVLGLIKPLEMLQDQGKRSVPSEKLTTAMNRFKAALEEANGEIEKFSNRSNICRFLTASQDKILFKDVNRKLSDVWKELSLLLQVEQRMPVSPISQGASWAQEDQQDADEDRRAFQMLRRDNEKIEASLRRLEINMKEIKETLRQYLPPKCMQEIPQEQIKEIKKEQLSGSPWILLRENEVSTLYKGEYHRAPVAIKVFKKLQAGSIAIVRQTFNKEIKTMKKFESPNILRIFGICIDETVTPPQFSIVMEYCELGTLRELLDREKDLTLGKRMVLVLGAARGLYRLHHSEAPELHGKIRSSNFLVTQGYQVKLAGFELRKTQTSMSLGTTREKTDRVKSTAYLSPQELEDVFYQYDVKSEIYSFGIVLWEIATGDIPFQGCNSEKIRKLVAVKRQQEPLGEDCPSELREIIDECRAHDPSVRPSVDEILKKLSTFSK
Chain of human RIPK1 (Q13546 whole entry): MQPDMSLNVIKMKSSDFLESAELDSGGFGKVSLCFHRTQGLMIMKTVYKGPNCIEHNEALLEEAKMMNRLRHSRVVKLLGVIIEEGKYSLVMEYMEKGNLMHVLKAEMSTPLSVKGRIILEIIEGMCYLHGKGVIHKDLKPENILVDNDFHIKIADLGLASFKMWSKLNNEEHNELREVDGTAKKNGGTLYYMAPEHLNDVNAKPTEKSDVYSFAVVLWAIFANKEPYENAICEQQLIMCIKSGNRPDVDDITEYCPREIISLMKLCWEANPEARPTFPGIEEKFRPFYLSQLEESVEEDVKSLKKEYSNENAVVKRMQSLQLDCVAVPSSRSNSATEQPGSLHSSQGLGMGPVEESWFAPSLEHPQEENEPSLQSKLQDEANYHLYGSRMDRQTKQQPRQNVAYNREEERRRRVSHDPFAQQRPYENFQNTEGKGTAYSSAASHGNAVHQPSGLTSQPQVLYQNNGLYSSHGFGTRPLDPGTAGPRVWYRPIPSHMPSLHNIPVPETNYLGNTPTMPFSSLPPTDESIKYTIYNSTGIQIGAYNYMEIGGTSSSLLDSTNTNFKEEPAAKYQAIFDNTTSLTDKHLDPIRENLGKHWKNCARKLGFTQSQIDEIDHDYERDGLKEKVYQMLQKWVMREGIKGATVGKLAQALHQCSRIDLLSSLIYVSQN

The target of the first test is human RIPK1 (Homo sapiens (Human), UniProt Q13546). Briefly: KINOMEscan binding assay, human RIPK1. The conditions noted are these: Table 21. The procedure:
(§1) Binding affinity of the test compounds for human MLKL (full length), mouse MLKL (full length), human RIPK1 and human RIPK3 was determined using the KINOMEscan™ technology developed by DiscoverX (USA; http://www.discoverx.com). The assay was conducted according to manufacturer instructions.
(§2) Kinase assays. For most assays, kinase-tagged T7 phage strains were grown in parallel in 24-well blocks in an E. coli host derived from the BL21 strain. E. coli were grown to log-phase and infected with T7 phage from a frozen stock (multiplicity of infection=0.4) and incubated with shaking at 32° C. until lysis (90-150 minutes). The lysates were centrifuged (6,000×g) and filtered (0.2 μm) to remove cell debris. The remaining kinases were produced in HEK-293 cells and subsequently tagged with DNA for qPCR detection. […] The liganded beads were blocked with excess biotin and washed with blocking buffer (SeaBlock (Pierce), 1% BSA, 0.05% Tween 20, 1 mM DTT) to remove unbound ligand and to reduce non-specific phage binding. […] All reactions were performed in polypropylene 384-well plates in a final volume of 20 μL. […] The kinase concentration in the eluates was measured by qPCR.
(§3) An 11-point 3-fold serial dilution of each test compound was prepared in 100% DMSO at 100× final test concentration and subsequently diluted to 1× in the assay (final DMSO concentration=1%). Most Kos were determined using a compound top concentration=30,000 nM.
(§4) KD for each test compound was calculated with a standard dose-response curve using the Hill equation (equation (1)): […]
(§5) The Hill Slope was set to −1.
(§6) Curves were fitted using a non-linear least square fit with the Levenberg-Marquardt algorithm.
Compound `C[C@H](Oc1cc(-c2nn(C)c3c(-c4ccnc(C(F)(F)F)c4)cnc(N)c23)ccc1NS(=O)(=O)C(F)F)c1ccc(F)cc1` [Compound 23, (S)-N-(4-(4-amino-1-methyl-7-(2-(trifluoromethyl)pyridin-4-yl)-1H-pyrazolo[4,3-c]pyridin-3-yl)-2-(1-(4-fluorophenyl)ethoxy)phenyl)-1,1-difluoromethanesulfonamide] registered a Kd above 10000 nM.

The target in another test is human MLKL (full length) (Homo sapiens (Human), UniProt Q8NB16). Briefly: KINOMEscan binding assay, human MLKL (full length). The conditions noted are these: KINOMEscan, Table 21; read-out: Human MLKL (full-length) (KD). As for the experimental part:
as §1, §2, §3, §4, §5, §6
As for `COc1ccc([C@H](C)Oc2cc(-c3nn(C)c4c(-c5cnn(C6CCOCC6)c5)cnc(N)c34)ccc2NS(=O)(=O)C(F)F)cc1` [Compound 129, (S)-N-(4-(4-amino-1-methyl-7-(1-(tetrahydro-2H-pyran-4-yl)-1H-pyrazol-4-yl)-1H-pyrazolo[4,3-c]pyridin-3-yl)-2-(1-(4-methoxy-phenyl)ethoxy)phenyl)-1,1-difluoromethane-sulfonamide], the Kd was below 1 nM.

Consider `Cn1nc(-c2ccc(NS(=O)(=O)C(F)F)c(OCc3ccc(F)cc3)c2)c2c(N)ncc(-c3ccncc3)c21` [Compound 14, N-(4-(4-amino-1-methyl-7-(pyridin-4-yl)-1H-pyrazolo[4,3-c]pyridin-3-yl)-2-((4-fluoro-benzyl)oxy)phenyl)-1,1-difluoromethane-sulfonamide], for which the Kd was below 1 nM.

The same test, now with this note: hMLKL, Table 25; read-out: MLKL (KD).
Take `CN[C@@H](C)C(=O)N[C@H](C(=O)N1C[C@H](NC(=O)CCCCn2cc(-c3cnc(N)c4c(-c5ccc(NS(=O)(=O)C(F)F)c(O[C@@H](C)c6ccc(F)cc6)c5)nn(C)c34)cn2)C[C@H]1C(=O)Nc1c(F)cccc1F)C(C)(C)C` [Compound 1080, (2S)-4-[5-(4-{4-amino-3-[4-(difluoromethanesulfonamido)-3-[(1S)-1-(4-fluorophenyl)ethoxy]phenyl]-1-methyl-1H-pyrazolo[4,3-c]pyridin-7-yl}-1H-pyrazol-1-yl)pentanamido]-N-(2,6-difluorophenyl)-1-[(2S)-3,3-dimethyl-2-[(2S)-2-(methylamino)propanamido]butanoyl]pyrrolidine-2-carboxamide]: the Kd is below 10 nM.

For the compound `C[C@H](Oc1cc(-c2nn(C)c3c(-c4cnn(C5CCN(CCN6CCCC6COc6cccc7c6C(=O)N(C6CCC(=O)NC6=O)C7=O)CC5)c4)cnc(N)c23)ccc1NS(=O)(=O)C(F)F)c1ccc(F)cc1` (stereo partly drawn) [Compound 1120, N-(4-{4-amino-7-[1-(1-{2-[2-({[2-(2,6-dioxopiperidin-3-yl)-1,3-dioxo-2,3-dihydro-1H-isoindol-4-yl]oxy}methyl)pyrrolidin-1-yl]ethyl}piperidin-4-yl)-1H-pyrazol-4-yl]-1-methyl-1H-pyrazolo[4,3-c]pyridin-3-yl}-2-[(1S)-1-(4-fluorophenyl)ethoxy]phenyl)-1,1-difluoromethanesulfonamide], the Kd is below 10 nM.

Turning to `Cc1ncsc1-c1ccc(CNC(=O)[C@@H]2C[C@@H](O)CN2C(=O)[C@@H](NC(=O)c2ccc(OCCn3cc(-c4cnc(N)c5c(-c6ccc(NS(=O)(=O)C(F)F)c(O[C@@H](C)c7ccc(F)cc7)c6)nn(C)c45)cn3)cc2)C(C)(C)C)cc1` [Compound 1037, (2S,4R)-1-[(2S)-2-({4-[2-(4-{4-amino-3-[4-(difluoromethanesulfonamido)-3-[(1S)-1-(4-fluorophenyl)ethoxy]phenyl]-1-methyl-1H-pyrazolo[4,3-c]pyridin-7-yl}-1H-pyrazol-1-yl)ethoxy]phenyl}formamido)-3,3-dimethylbutanoyl]-4-hydroxy-N-{[4-(4-methyl-1,3-thiazol-5-yl)phenyl]methyl}pyrrolidine-2-carboxamide], the Kd lay within 10 to 1000 nM.

As to `Cc1ncsc1-c1ccc(CNC(=O)[C@@H]2C[C@@H](O)CN2C(=O)[C@@H](NC(=O)CCN2CCC(C#Cc3cnc(N)c4c(-c5ccc(NS(=O)(=O)C(F)F)c(O[C@@H](C)c6ccc(F)cc6)c5)nn(C)c34)CC2)C(C)(C)C)cc1` [Compound 1024, (2S,4R)-1-[(2S)-2-{3-[4-(2-{4-amino-3-[4-(difluoromethanesulfonamido)-3-[(1S)-1-(4-fluorophenyl)ethoxy]phenyl]-1-methyl-1H-pyrazolo[4,3-c]pyridin-7-yl}ethynyl)piperidin-1-yl]propanamido}-3,3-dimethylbutanoyl]-4-hydroxy-N-{[4-(4-methyl-1,3-thiazol-5-yl)phenyl]methyl}pyrrolidine-2-carboxamide], the Kd is below 10 nM.

Turning to `CN[C@@H](C)C(=O)N[C@H](C(=O)N1C[C@H](NC(=O)COCCn2cc(-c3cnc(N)c4c(-c5ccc(NS(=O)(=O)C(F)F)c(O[C@@H](C)c6ccc(F)cc6)c5)nn(C)c34)cn2)C[C@H]1C(=O)Nc1c(F)cccc1F)C(C)(C)C` [Compound 1089, (2S)-4-{2-[2-(4-{4-amino-3-[4-(difluoromethanesulfonamido)-3-[(1S)-1-(4-fluorophenyl)ethoxy]phenyl]-1-methyl-1H-pyrazolo[4,3-c]pyridin-7-yl}-1H-pyrazol-1-yl)ethoxy]acetamido}-N-(2,6-difluorophenyl)-1-[(2S)-3,3-dimethyl-2-[(2S)-2-(methylamino)propanamido]butanoyl]pyrrolidine-2-carboxamide], the Kd was below 10 nM.

Take `Cc1ncsc1-c1ccc(CNC(=O)[C@@H]2C[C@@H](O)CN2C(=O)[C@@H](NC(=O)CCCCOC(=O)c2ccc(-c3cnc(N)c4c(-c5ccc(NS(=O)(=O)C(F)F)c(O[C@@H](C)c6ccc(F)cc6)c5)nn(C)c34)cn2)C(C)(C)C)cc1` [Compound 1065, 4-{[(2S)-1-[(2S,4R)-4-hydroxy-2-({[4-(4-methyl-1,3-thiazol-5-yl)phenyl]methyl}carbamoyl)pyrrolidin-1-yl]-3,3-dimethyl-1-oxobutan-2-yl]carbamoyl}butyl 5-{4-amino-3-[4-(difluoromethanesulfonamido)-3-[(1S)-1-(4-fluorophenyl)ethoxy]phenyl]-1-methyl-1H-pyrazolo[4,3-c]pyridin-7-yl}pyridine-2-carboxylate]: the Kd was below 10 nM.

For the compound `COc1ccc(C(=O)N2CCC(n3cc(-c4cnc(N)c5c(-c6ccc(NS(=O)(=O)C(F)F)c(O[C@@H](C)c7ccc(F)cc7)c6)nn(C)c45)cn3)CC2)cc1N1CCC(=O)NC1=O` [Compound 1092, N-{4-[4-amino-7-(1-{1-[3-(2,4-dioxo-1,3-diazinan-1-yl)-4-methoxybenzoyl]piperidin-4-yl}-1H-pyrazol-4-yl)-1-methyl-1H-pyrazolo[4,3-c]pyridin-3-yl]-2-[(1S)-1-(4-fluorophenyl)ethoxy]phenyl}-1,1-difluoromethanesulfonamide], the Kd is below 10 nM.

For the compound `Cc1ncsc1-c1ccc(CNC(=O)[C@@H]2C[C@@H](O)CN2C(=O)[C@@H](NC(=O)CCCCN2CCC(C#Cc3cnc(N)c4c(-c5ccc(NS(=O)(=O)C(F)F)c(O[C@@H](C)c6ccc(F)cc6)c5)nn(C)c34)CC2)C(C)(C)C)cc1` [Compound 1063, (2S,4R)-1-[(2S)-2-{5-[4-(2-{4-amino-3-[4-(difluoromethanesulfonamido)-3-[(1S)-1-(4-fluorophenyl)ethoxy]phenyl]-1-methyl-1H-pyrazolo[4,3-c]pyridin-7-yl}ethynyl)piperidin-1-yl]pentanamido}-3,3-dimethylbutanoyl]-4-hydroxy-N-{[4-(4-methyl-1,3-thiazol-5-yl)phenyl]methyl}pyrrolidine-2-carboxamide], the Kd is below 10 nM.

Turning to `Cc1ncsc1-c1ccc(CNC(=O)[C@@H]2C[C@@H](O)CN2C(=O)[C@@H](NC(=O)C2(F)CC2)C(C)(C)C)c(OCCCCCCCCCn2cc(-c3cnc(N)c4c(-c5ccc(NS(=O)(=O)C(F)F)c(O[C@@H](C)c6ccc(F)cc6)c5)nn(C)c34)cn2)c1` [Compound 1138, (2S,4R)—N-[(2-{[9-(4-{4-amino-3-[4-(difluoromethanesulfonamido)-3-[(1S)-1-(4-fluorophenyl)ethoxy]phenyl]-1-methyl-1H-pyrazolo[4,3-c]pyridin-7-yl}-1H-pyrazol-1-yl)nonyl]oxy}-4-(4-methyl-1,3-thiazol-5-yl)phenyl)methyl]-1-[(2S)-2-[(1-fluorocyclopropyl) formamido]-3,3-dimethylbutanoyl]-4-hydroxypyrrolidine-2-carboxamide], the Kd was in the range of 10 to 1000 nM.

Take `C[C@H](Oc1cc(-c2nn(C)c3c(-c4cnn(C5CCN(C(=O)CCC6CCN(c7cccc8c7C(=O)N(C7CCC(=O)N(C)C7=O)C8=O)CC6)CC5)c4)cnc(N)c23)ccc1NS(=O)(=O)C(F)F)c1ccc(F)cc1` (stereo partly drawn) [Compound 1141, N-[4-(4-amino-1-methyl-7-{1-[1-(3-{1-[2-(1-methyl-2,6-dioxopiperidin-3-yl)-1,3-dioxo-2,3-dihydro-1H-isoindol-4-yl]piperidin-4-yl}propanoyl)piperidin-4-yl]-1H-pyrazol-4-yl}-1H-pyrazolo[4,3-c]pyridin-3-yl)-2-[(1S)-1-(4-fluorophenyl)ethoxy]phenyl]-1,1-difluoromethanesulfonamide]: the Kd was below 10 nM.

In another test the target is human RIPK3 (Homo sapiens (Human), UniProt Q9Y572). Briefly: KINOMEscan binding assay, human RIPK3. The conditions noted are these: Table 21. As for the experimental part: as §1, §2, §3, §4, §5, §6
Chain of human RIPK3 (Q9Y572 whole entry): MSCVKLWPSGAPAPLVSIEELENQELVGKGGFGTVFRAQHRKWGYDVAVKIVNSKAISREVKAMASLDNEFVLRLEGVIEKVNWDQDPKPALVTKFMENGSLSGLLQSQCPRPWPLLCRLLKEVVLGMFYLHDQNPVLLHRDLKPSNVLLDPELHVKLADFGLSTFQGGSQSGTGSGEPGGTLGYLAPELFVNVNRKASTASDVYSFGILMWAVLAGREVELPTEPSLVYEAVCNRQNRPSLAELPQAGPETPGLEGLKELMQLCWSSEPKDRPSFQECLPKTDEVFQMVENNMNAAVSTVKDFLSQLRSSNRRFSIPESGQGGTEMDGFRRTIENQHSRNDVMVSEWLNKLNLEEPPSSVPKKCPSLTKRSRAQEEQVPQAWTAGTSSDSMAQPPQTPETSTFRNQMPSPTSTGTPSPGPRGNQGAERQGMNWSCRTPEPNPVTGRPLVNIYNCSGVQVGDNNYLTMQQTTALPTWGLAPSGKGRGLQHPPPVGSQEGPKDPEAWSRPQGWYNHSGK
`C[C@H](Oc1cc(-c2nn(C)c3c(-c4ccnc(C(F)(F)F)c4)cnc(N)c23)ccc1NS(=O)(=O)C(F)F)c1ccc(F)cc1` [Compound 23, (S)-N-(4-(4-amino-1-methyl-7-(2-(trifluoromethyl)pyridin-4-yl)-1H-pyrazolo[4,3-c]pyridin-3-yl)-2-(1-(4-fluorophenyl)ethoxy)phenyl)-1,1-difluoromethanesulfonamide] yielded a Kd above 10000 nM.
